How the values were obtained:
ABUTH (Velvetleaf) [1] = experiment: Postemergence herbicidal evaluation; assay type: in vivo, Abutilon theophrasti; conditions: postemergence
Summary of the method: (§1)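 ~2-wk seedlings; postemergence spray, 40 psi; vehicle 1:1 acetone:water + 0.5% Tween 20; rate ≈0.0156–0.500 kg/ha; greenhouse hold; scored 4–5 wk after treatment, 0–9 scale vs control; repeat tests averaged.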

ABUTH (Velvetleaf) [2] = experiment: Preemergence herbicidal evaluation; assay type: in vivo, Abutilon theophrasti; conditions: rated 4-5 weeks after treatment
Summary of the method: (§2)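 Scores use a 0–9 visual scale covering stand, vigor, malformation, size and chlorosis relative to controls, rated four to five weeks after treatment. Before emergence, soil-planted seeds were sprayed with compound in aqueous acetone at roughly 0.0156–0.500 kg/ha and held in the greenhouse.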

[3] = tested on: TRZAWR (Wheat, Winter, cv Riband); experiment: Postemergence herbicidal evaluation; assay type: in vivo, Triticum aestivum; conditions: postemergence
Summary of the method: as §1

ECHCG (Barnyardgrass) = experiment: Postemergence herbicidal evaluation; assay type: in vivo, Echinochloa crus-galli; conditions: postemergence
Summary of the method: as §1

SETVI (Foxtail, Green) [4] = experiment: Postemergence herbicidal evaluation; assay type: in vivo, Setaria viridis; conditions: postemergence
Summary of the method: as §1

ORYSAT (Rice, Tebonnet) = experiment: Postemergence herbicidal evaluation; assay type: in vivo, Oryza sativa, (L.) Tebonnet; conditions: postemergence
Summary of the method: as §1

SETVI (Foxtail, Green) [5] = experiment: Preemergence herbicidal evaluation; assay type: in vivo, Setaria viridis; conditions: rated 4-5 weeks after treatment
Summary of the method: as §2

AMBEL (Ragweed, Common) = experiment: Postemergence herbicidal evaluation; assay type: in vivo, Ambrosia artemisifolia; conditions: postemergence
Summary of the method: as §1

CASOB (Sicklepod) = experiment: Preemergence herbicidal evaluation; assay type: in vivo, Cassia obtusifolia; conditions: rated 4-5 weeks after treatment
Summary of the method: as §2

MOOVA (Monochoria) = experiment: Preemergence weed control under flooded paddy conditions; assay type: in vivo, Monochoria vaginalis; conditions: rated 3-4 weeks after treatment
Summary of the method: (§3)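 Using flooded silt loam (water 1.5 to 3 cm deep), seeds sown in the top 0.5 cm were exposed preemergence to compound pipetted into the flood at about 0.0313 to 0.500 kg/ha. Effects were scored 0-9 by eye three to four weeks later.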

[6] = tested on: SAGPY (Arrowhead (Pygmaea)); experiment: as above; assay type: in vivo, Sagittaria pygmaea; conditions: rated 3-4 weeks after treatment
Summary of the method: as §3

[7] = tested on: GLXMAW (Soybean, Williams); experiment: Postemergence herbicidal evaluation; assay type: in vivo, Glycine max, (L.) Merr. cv Williams; conditions: postemergence
Summary of the method: as §1

Cn1c(C(F)(F)F)cc(=O)n(-c2cc(N=C3SCC(=O)N3CC(=O)OC3CCCC3)c(Cl)cc2F)c1=O [Compound 120, Cyclopentyl 2-{{2-chloro-5-[3,6-dihydro-3-methyl-2,6-dioxo-4-(trifluoromethyl)-1(2H)-pyrimidinyl]-4-fluorophenyl}imino}-4-oxo-3-thiazolidineacetate]
Herbicidal rating ABUTH (ABUTH (Velvetleaf) [1]; rate 0.0156 kg/ha): 9.0 | Herbicidal rating ABUTH (ABUTH (Velvetleaf) [1]; rate 0.0313 kg/ha): 9.0 | Herbicidal rating ABUTH (ABUTH (Velvetleaf) [1]; rate 0.0625 kg/ha): 9.0 | Preemergence herbicidal rating ABUTH (ABUTH (Velvetleaf) [2]; rate 0.0156 kg/ha): 0.0 | Preemergence herbicidal rating ABUTH (ABUTH (Velvetleaf) [2]; rate 0.0313 kg/ha): 9.0 | Preemergence herbicidal rating ABUTH (ABUTH (Velvetleaf) [2]; rate 0.0625 kg/ha): 9.0 | Preemergence herbicidal rating ABUTH (ABUTH (Velvetleaf) [2]; rate 0.1250 kg/ha): 9.0 | Preemergence herbicidal rating ABUTH (ABUTH (Velvetleaf) [2]; rate 0.2500 kg/ha): 9.0 | Herbicidal rating TRZAWR ([3]; rate 0.0156 kg/ha): 3.5 | Herbicidal rating TRZAWR ([3]; rate 0.0313 kg/ha): 4.5 | Herbicidal rating TRZAWR ([3]; rate 0.0625 kg/ha): 5.0 | Herbicidal rating ECHCG (ECHCG (Barnyardgrass); rate 0.0156 kg/ha): 1.0 | Herbicidal rating ECHCG (ECHCG (Barnyardgrass); rate 0.0313 kg/ha): 2.0 | Herbicidal rating ECHCG (ECHCG (Barnyardgrass); rate 0.0625 kg/ha): 5.0 | Herbicidal rating SETVI (SETVI (Foxtail, Green) [4]; rate 0.0156 kg/ha): 4.0 | Herbicidal rating SETVI (SETVI (Foxtail, Green) [4]; rate 0.0313 kg/ha): 9.0 | Herbicidal rating SETVI (SETVI (Foxtail, Green) [4]; rate 0.0625 kg/ha): 9.0 | Herbicidal rating ORYSAT (ORYSAT (Rice, Tebonnet); rate 0.0156 kg/ha): 2.0 | Herbicidal rating ORYSAT (ORYSAT (Rice, Tebonnet); rate 0.0313 kg/ha): 2.5 | Herbicidal rating ORYSAT (ORYSAT (Rice, Tebonnet); rate 0.0625 kg/ha): 2.5 | Preemergence herbicidal rating SETVI (SETVI (Foxtail, Green) [5]; rate 0.0156 kg/ha): 0.0 | Preemergence herbicidal rating SETVI (SETVI (Foxtail, Green) [5]; rate 0.0313 kg/ha): 0.0 | Preemergence herbicidal rating SETVI (SETVI (Foxtail, Green) [5]; rate 0.0625 kg/ha): 9.0 | Preemergence herbicidal rating SETVI (SETVI (Foxtail, Green) [5]; rate 0.1250 kg/ha): 9.0 | Preemergence herbicidal rating SETVI (SETVI (Foxtail, Green) [5]; rate 0.2500 kg/ha): 9.0 | Herbicidal rating AMBEL (AMBEL (Ragweed, Common); rate 0.0156 kg/ha): 9.0 | Herbicidal rating AMBEL (AMBEL (Ragweed, Common); rate 0.0313 kg/ha): 9.0 | Herbicidal rating AMBEL (AMBEL (Ragweed, Common); rate 0.0625 kg/ha): 9.0 | Preemergence herbicidal rating CASOB (CASOB (Sicklepod); rate 0.0156 kg/ha): 0.0 | Preemergence herbicidal rating CASOB (CASOB (Sicklepod); rate 0.0313 kg/ha): 0.0 | Preemergence herbicidal rating CASOB (CASOB (Sicklepod); rate 0.0625 kg/ha): 3.0 | Preemergence herbicidal rating CASOB (CASOB (Sicklepod); rate 0.1250 kg/ha): 4.0 | Preemergence herbicidal rating CASOB (CASOB (Sicklepod); rate 0.2500 kg/ha): 4.0 | herbicidal effect rating, MOOVA (MOOVA (Monochoria); 0.0313 kg/ha): 8.5 | herbicidal effect rating, MOOVA (MOOVA (Monochoria); 0.0625 kg/ha): 9.0 | herbicidal effect rating, MOOVA (MOOVA (Monochoria); 0.1250 kg/ha): 9.0 | herbicidal effect rating, MOOVA (MOOVA (Monochoria); 0.2500 kg/ha): 9.0 | herbicidal effect rating, SAGPY ([6]; 0.0313 kg/ha): 0.0 | herbicidal effect rating, SAGPY ([6]; 0.0625 kg/ha): 0.0 | herbicidal effect rating, SAGPY ([6]; 0.1250 kg/ha): 2.0 | herbicidal effect rating, SAGPY ([6]; 0.2500 kg/ha): 7.5 | Herbicidal rating GLXMAW ([7]; rate 0.0156 kg/ha): 7.5 | Herbicidal rating GLXMAW ([7]; rate 0.0313 kg/ha): 9.0 | Herbicidal rating GLXMAW ([7]; rate 0.0625 kg/ha): 9.0

Cc1ccccc1CN1C(=O)CSC1=Nc1cc(-n2c(=O)cc(C(F)(F)F)n(C)c2=O)c(F)cc1Cl [Compound 129, 3-{4-Chloro-2-fluoro-5-{[3-(o-methylbenzyl)-4-oxo-2-thiazolidinylidene]amino}phenyl}-1-methyl-6-(trifluoromethyl)-2,4 (1H,3H)-pyrimidinedione]
Herbicidal rating ABUTH (ABUTH (Velvetleaf) [1]; rate 0.0156 kg/ha): 9.0 | Herbicidal rating ABUTH (ABUTH (Velvetleaf) [1]; rate 0.0313 kg/ha): 9.0 | Herbicidal rating ABUTH (ABUTH (Velvetleaf) [1]; rate 0.0625 kg/ha): 9.0 | Preemergence herbicidal rating ABUTH (ABUTH (Velvetleaf) [2]; rate 0.0156 kg/ha): 0.0 | Preemergence herbicidal rating ABUTH (ABUTH (Velvetleaf) [2]; rate 0.0313 kg/ha): 1.0 | Preemergence herbicidal rating ABUTH (ABUTH (Velvetleaf) [2]; rate 0.0625 kg/ha): 9.0 | Preemergence herbicidal rating ABUTH (ABUTH (Velvetleaf) [2]; rate 0.1250 kg/ha): 9.0 | Preemergence herbicidal rating ABUTH (ABUTH (Velvetleaf) [2]; rate 0.2500 kg/ha): 9.0 | Herbicidal rating TRZAWR ([3]; rate 0.0156 kg/ha): 3.0 | Herbicidal rating TRZAWR ([3]; rate 0.0313 kg/ha): 3.5 | Herbicidal rating TRZAWR ([3]; rate 0.0625 kg/ha): 3.5 | Herbicidal rating ECHCG (ECHCG (Barnyardgrass); rate 0.0156 kg/ha): 1.0 | Herbicidal rating ECHCG (ECHCG (Barnyardgrass); rate 0.0313 kg/ha): 2.0 | Herbicidal rating ECHCG (ECHCG (Barnyardgrass); rate 0.0625 kg/ha): 3.0 | Herbicidal rating SETVI (SETVI (Foxtail, Green) [4]; rate 0.0156 kg/ha): 2.0 | Herbicidal rating SETVI (SETVI (Foxtail, Green) [4]; rate 0.0313 kg/ha): 3.0 | Herbicidal rating SETVI (SETVI (Foxtail, Green) [4]; rate 0.0625 kg/ha): 5.0 | Herbicidal rating ORYSAT (ORYSAT (Rice, Tebonnet); rate 0.0156 kg/ha): 2.5 | Herbicidal rating ORYSAT (ORYSAT (Rice, Tebonnet); rate 0.0313 kg/ha): 3.5 | Herbicidal rating ORYSAT (ORYSAT (Rice, Tebonnet); rate 0.0625 kg/ha): 3.0 | Preemergence herbicidal rating SETVI (SETVI (Foxtail, Green) [5]; rate 0.0156 kg/ha): 1.0 | Preemergence herbicidal rating SETVI (SETVI (Foxtail, Green) [5]; rate 0.0313 kg/ha): 1.0 | Preemergence herbicidal rating SETVI (SETVI (Foxtail, Green) [5]; rate 0.0625 kg/ha): 1.0 | Preemergence herbicidal rating SETVI (SETVI (Foxtail, Green) [5]; rate 0.1250 kg/ha): 6.0 | Preemergence herbicidal rating SETVI (SETVI (Foxtail, Green) [5]; rate 0.2500 kg/ha): 7.0 | Herbicidal rating AMBEL (AMBEL (Ragweed, Common); rate 0.0156 kg/ha): 9.0 | Herbicidal rating AMBEL (AMBEL (Ragweed, Common); rate 0.0313 kg/ha): 9.0 | Herbicidal rating AMBEL (AMBEL (Ragweed, Common); rate 0.0625 kg/ha): 9.0 | Preemergence herbicidal rating CASOB (CASOB (Sicklepod); rate 0.0156 kg/ha): 1.0 | Preemergence herbicidal rating CASOB (CASOB (Sicklepod); rate 0.0313 kg/ha): 1.0 | Preemergence herbicidal rating CASOB (CASOB (Sicklepod); rate 0.0625 kg/ha): 1.0 | Preemergence herbicidal rating CASOB (CASOB (Sicklepod); rate 0.1250 kg/ha): 7.0 | Preemergence herbicidal rating CASOB (CASOB (Sicklepod); rate 0.2500 kg/ha): 8.0 | herbicidal effect rating, MOOVA (MOOVA (Monochoria); 0.0313 kg/ha): 6.0 | herbicidal effect rating, MOOVA (MOOVA (Monochoria); 0.0625 kg/ha): 7.0 | herbicidal effect rating, MOOVA (MOOVA (Monochoria); 0.1250 kg/ha): 9.0 | herbicidal effect rating, MOOVA (MOOVA (Monochoria); 0.2500 kg/ha): 9.0 | herbicidal effect rating, SAGPY ([6]; 0.0313 kg/ha): 0.0 | herbicidal effect rating, SAGPY ([6]; 0.0625 kg/ha): 0.0 | herbicidal effect rating, SAGPY ([6]; 0.1250 kg/ha): 2.0 | herbicidal effect rating, SAGPY ([6]; 0.2500 kg/ha): 7.0 | Herbicidal rating GLXMAW ([7]; rate 0.0156 kg/ha): 5.0 | Herbicidal rating GLXMAW ([7]; rate 0.0313 kg/ha): 5.0 | Herbicidal rating GLXMAW ([7]; rate 0.0625 kg/ha): 6.0

Reference: US20020137929A1, “1 - (3-heterocyclylphenyl) isothiourea, -isourea, -guanidine and -amidine herbicidal agents” (Intellectual Property Department, BASF Aktiengesellschaft, priority 1998, published 2002)
